Laboratory results reported in ChEMBL document CHEMBL5723582, “Data for DCP probe T-10430” (2024).

Assays:
Settings in all cases: Compound concentration 1.0 uM
[1] = target: Metabotropic glutamate receptor 7 (Homo sapiens) (UniProt Q14831); experiment: RLU of GRM7 at 1.0 µM in the Aequorin PRESTO-Tango GPCRome screen
[2] = target: G-protein coupled receptor 35 (Homo sapiens) (UniProt Q9HC97); experiment: RLU of GPR35 at 1.0 µM in the […] PRESTO-Tango GPCRome screen
[3] = target: Mas-related G-protein coupled receptor member X3 (Homo sapiens) (UniProt Q96LB0); experiment: RLU of MRGPRX3 at 1.0 µM in the […] PRESTO-Tango GPCRome screen
Chain of Mas-related G-protein coupled receptor member X3 (Homo sapiens) (Q96LB0 whole entry): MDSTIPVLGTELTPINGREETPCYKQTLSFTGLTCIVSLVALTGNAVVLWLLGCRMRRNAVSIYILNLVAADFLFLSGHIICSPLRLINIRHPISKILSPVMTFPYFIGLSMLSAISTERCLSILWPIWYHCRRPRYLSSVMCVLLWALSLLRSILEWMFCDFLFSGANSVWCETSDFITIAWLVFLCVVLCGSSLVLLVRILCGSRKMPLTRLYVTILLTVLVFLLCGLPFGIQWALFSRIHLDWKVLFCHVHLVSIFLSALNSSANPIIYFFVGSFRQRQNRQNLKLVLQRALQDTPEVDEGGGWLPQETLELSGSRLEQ

[4] = target: C-X-C chemokine receptor type 1 (Homo sapiens) (UniProt P25024); experiment: RLU of CXCR1 at 1.0 µM in the […] PRESTO-Tango GPCRome screen
[5] = target: Retinoic acid-induced protein 3 (Homo sapiens) (UniProt Q8NFJ5); experiment: RLU of GPRC5A at 1.0 µM in the […] PRESTO-Tango GPCRome screen
Chain of Retinoic acid-induced protein 3 (Homo sapiens) (Q8NFJ5 whole entry): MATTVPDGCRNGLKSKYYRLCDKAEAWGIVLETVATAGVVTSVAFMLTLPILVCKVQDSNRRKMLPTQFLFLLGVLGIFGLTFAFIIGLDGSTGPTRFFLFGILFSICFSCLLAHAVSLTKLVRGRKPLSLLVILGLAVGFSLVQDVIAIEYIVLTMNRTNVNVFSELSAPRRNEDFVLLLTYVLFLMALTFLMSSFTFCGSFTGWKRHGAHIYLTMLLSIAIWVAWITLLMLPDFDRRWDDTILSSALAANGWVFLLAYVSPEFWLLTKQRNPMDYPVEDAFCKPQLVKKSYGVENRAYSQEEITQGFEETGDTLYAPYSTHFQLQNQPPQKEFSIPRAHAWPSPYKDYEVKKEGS

[6] = target: Proteinase-activated receptor 4 (Homo sapiens) (UniProt Q96RI0); experiment: RLU of F2RL3 at 1.0 µM in the […] PRESTO-Tango GPCRome screen
[7] = target: Probable G-protein coupled receptor 150 (Homo sapiens) (UniProt Q8NGU9); experiment: RLU of GPR150 at 1.0 µM in the […] PRESTO-Tango GPCRome screen
[8] = target: Relaxin receptor 2 (Homo sapiens) (UniProt Q8WXD0); experiment: RLU of RXFP2 at 1.0 µM in the […] PRESTO-Tango GPCRome screen
[9] = target: Prostaglandin D2 receptor 2 (Homo sapiens) (UniProt Q9Y5Y4); experiment: RLU of GPR44 at 1.0 µM in the […] PRESTO-Tango GPCRome screen
Chain of Prostaglandin D2 receptor 2 (Homo sapiens) (Q9Y5Y4 whole entry): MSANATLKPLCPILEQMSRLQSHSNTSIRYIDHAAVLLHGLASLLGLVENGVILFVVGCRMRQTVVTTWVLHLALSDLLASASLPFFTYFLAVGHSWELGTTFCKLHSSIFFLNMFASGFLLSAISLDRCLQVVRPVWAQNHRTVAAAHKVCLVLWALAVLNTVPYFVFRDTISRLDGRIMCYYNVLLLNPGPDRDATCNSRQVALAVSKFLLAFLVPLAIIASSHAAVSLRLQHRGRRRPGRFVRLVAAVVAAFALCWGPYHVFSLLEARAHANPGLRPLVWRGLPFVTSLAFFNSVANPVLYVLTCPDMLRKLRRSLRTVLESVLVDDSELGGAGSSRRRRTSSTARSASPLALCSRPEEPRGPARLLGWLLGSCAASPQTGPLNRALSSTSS

[10] = target: Probable G-protein coupled receptor 148 (Homo sapiens) (UniProt Q8TDV2); experiment: RLU of GPR148 at 1.0 µM in the […] PRESTO-Tango GPCRome screen
Chain of Probable G-protein coupled receptor 148 (Homo sapiens) (Q8TDV2 whole entry): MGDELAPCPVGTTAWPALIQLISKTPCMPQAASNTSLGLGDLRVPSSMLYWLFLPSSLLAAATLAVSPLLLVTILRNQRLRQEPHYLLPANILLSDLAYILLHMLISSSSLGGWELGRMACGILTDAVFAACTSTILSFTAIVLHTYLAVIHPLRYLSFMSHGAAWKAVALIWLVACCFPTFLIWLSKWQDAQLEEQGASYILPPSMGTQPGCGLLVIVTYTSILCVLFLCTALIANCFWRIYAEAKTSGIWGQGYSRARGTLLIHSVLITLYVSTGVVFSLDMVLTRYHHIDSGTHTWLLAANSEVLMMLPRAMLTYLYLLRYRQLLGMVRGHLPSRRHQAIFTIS

[11] = target: P2Y purinoceptor 14 (Homo sapiens) (UniProt Q15391); experiment: RLU of P2RY14 at 1.0 µM in the […] PRESTO-Tango GPCRome screen
Chain of P2Y purinoceptor 14 (Homo sapiens) (Q15391 whole entry): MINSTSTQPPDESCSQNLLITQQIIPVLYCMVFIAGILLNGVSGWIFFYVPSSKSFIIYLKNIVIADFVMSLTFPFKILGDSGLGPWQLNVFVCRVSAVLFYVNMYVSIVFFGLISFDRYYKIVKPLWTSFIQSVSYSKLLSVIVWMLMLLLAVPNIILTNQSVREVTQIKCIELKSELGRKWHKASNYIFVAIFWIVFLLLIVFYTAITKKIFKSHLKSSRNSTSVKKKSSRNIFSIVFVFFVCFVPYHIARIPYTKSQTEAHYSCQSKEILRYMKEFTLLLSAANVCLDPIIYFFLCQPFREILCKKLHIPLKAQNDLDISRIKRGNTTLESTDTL

[12] = target: B1 bradykinin receptor (Homo sapiens) (UniProt P46663); experiment: RLU of BDKRB1 at 1.0 µM in the […] PRESTO-Tango GPCRome screen
Chain of B1 bradykinin receptor (Homo sapiens) (P46663 whole entry): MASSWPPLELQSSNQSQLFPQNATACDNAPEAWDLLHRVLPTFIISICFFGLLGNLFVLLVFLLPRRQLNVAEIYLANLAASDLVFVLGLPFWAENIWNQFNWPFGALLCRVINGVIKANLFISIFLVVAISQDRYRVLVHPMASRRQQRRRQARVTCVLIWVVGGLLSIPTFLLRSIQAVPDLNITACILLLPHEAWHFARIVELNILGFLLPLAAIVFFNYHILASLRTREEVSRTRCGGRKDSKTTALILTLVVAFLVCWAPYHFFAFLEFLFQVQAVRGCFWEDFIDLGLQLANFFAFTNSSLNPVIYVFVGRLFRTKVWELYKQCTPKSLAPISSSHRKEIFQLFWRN

[13] = target: G-protein coupled receptor 83 (Homo sapiens) (UniProt Q9NYM4); experiment: RLU of GPR83 at 1.0 µM in the […] PRESTO-Tango GPCRome screen
[14] = target: Vasopressin V2 receptor (Homo sapiens) (UniProt P30518); experiment: RLU of AVPR2 at 1.0 µM in the […] PRESTO-Tango GPCRome screen
[15] = target: Melatonin-related receptor (Homo sapiens) (UniProt Q13585); experiment: RLU of GPR50 at 1.0 µM in the […] PRESTO-Tango GPCRome screen
[16] = target: C-C chemokine receptor type 2 (Homo sapiens) (UniProt P41597); experiment: RLU of CCR2 at 1.0 µM in the […] PRESTO-Tango GPCRome screen
[17] = target: Proteinase-activated receptor 2 (Homo sapiens) (UniProt P55085); experiment: RLU of F2RL1 at 1.0 µM in the […] PRESTO-Tango GPCRome screen
[18] = target: Chemerin-like receptor 2 (Homo sapiens) (UniProt P46091); experiment: RLU of GPR1 at 1.0 µM in the […] PRESTO-Tango GPCRome screen
Chain of Chemerin-like receptor 2 (Homo sapiens) (P46091 whole entry): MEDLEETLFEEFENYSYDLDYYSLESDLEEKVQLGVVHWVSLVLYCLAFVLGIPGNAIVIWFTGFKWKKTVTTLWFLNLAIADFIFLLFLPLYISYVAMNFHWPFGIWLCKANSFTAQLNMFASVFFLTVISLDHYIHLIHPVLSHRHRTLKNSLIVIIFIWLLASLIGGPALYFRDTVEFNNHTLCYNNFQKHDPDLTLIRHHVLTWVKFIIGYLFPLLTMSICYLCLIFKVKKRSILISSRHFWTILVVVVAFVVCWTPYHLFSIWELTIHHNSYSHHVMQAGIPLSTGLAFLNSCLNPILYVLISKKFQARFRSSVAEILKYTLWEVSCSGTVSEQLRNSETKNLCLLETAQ

[19] = target: Metabotropic glutamate receptor 1 (Homo sapiens) (UniProt Q13255); experiment: RLU of GRM1 at 1.0 µM in the Aequorin PRESTO-Tango GPCRome screen
[20] = target: Cysteinyl leukotriene receptor 1 (Homo sapiens) (UniProt Q9Y271); experiment: RLU of CYSLTR1 at 1.0 µM in the […] PRESTO-Tango GPCRome screen
[21] = target: S-geranylgeranyl-glutathione receptor P2RY8 (Homo sapiens) (UniProt Q86VZ1); experiment: RLU of P2RY8 at 1.0 µM in the […] PRESTO-Tango GPCRome screen
[22] = target: Lutropin-choriogonadotropic hormone receptor (Homo sapiens) (UniProt P22888); experiment: RLU of LHCGR at 1.0 µM in the […] PRESTO-Tango GPCRome screen
[23] = target: Melatonin receptor type 1B (Homo sapiens) (UniProt P49286); experiment: RLU of MTNR1B at 1.0 µM in the […] PRESTO-Tango GPCRome screen
Chain of Melatonin receptor type 1B (Homo sapiens) (P49286 whole entry): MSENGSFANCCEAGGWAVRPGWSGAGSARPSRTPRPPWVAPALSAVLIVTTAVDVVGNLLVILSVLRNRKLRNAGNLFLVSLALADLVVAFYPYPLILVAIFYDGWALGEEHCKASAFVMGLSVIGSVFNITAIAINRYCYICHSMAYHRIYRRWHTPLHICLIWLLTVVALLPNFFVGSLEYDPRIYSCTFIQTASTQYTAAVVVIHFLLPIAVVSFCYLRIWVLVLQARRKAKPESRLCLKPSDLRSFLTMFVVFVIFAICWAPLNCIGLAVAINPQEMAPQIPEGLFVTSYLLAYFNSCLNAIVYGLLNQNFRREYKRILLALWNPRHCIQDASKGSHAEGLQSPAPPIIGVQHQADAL

[24] = target: fMet-Leu-Phe receptor (Homo sapiens) (UniProt P21462); experiment: RLU of FPR1 at 1.0 µM in the […] PRESTO-Tango GPCRome screen
[25] = target: Sphingosine 1-phosphate receptor 1 (Homo sapiens) (UniProt P21453); experiment: RLU of S1PR1 at 1.0 µM in the […] PRESTO-Tango GPCRome screen
[26] = target: Adhesion G-protein coupled receptor D1 (Homo sapiens) (UniProt Q6QNK2); experiment: RLU of GPR133 at 1.0 µM in the […] PRESTO-Tango GPCRome screen
[27] = target: G-protein coupled receptor 146 (Homo sapiens) (UniProt Q96CH1); experiment: RLU of GPR146 at 1.0 µM in the […] PRESTO-Tango GPCRome screen
Chain of G-protein coupled receptor 146 (Homo sapiens) (Q96CH1 whole entry): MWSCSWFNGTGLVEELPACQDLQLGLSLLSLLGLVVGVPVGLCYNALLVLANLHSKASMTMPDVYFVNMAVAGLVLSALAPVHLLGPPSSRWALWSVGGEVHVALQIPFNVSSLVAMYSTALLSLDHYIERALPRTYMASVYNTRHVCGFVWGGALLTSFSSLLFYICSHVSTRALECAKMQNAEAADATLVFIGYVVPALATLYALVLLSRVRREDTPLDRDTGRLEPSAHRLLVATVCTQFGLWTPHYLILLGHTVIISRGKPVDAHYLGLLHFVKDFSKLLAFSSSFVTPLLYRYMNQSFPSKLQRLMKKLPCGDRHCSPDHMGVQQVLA

[28] = target: Somatostatin receptor type 1 (Homo sapiens) (UniProt P30872); experiment: RLU of SSTR1 at 1.0 µM in the […] PRESTO-Tango GPCRome screen
Chain of Somatostatin receptor type 1 (Homo sapiens) (P30872 whole entry): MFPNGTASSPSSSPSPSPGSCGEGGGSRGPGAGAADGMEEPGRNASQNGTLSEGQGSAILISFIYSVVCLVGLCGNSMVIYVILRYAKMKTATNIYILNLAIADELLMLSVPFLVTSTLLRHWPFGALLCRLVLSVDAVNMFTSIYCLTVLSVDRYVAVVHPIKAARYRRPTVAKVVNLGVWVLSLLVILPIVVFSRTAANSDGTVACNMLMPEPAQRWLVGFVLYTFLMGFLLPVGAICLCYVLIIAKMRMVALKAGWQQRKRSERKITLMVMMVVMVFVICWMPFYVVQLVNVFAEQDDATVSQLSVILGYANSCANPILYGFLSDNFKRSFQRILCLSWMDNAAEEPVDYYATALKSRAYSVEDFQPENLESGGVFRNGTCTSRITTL

[29] = target: Probable G-protein coupled receptor 132 (Homo sapiens) (UniProt Q9UNW8); experiment: RLU of G2A at 1.0 µM in the […] PRESTO-Tango GPCRome screen
[30] = target: G-protein coupled receptor 183 (Homo sapiens) (UniProt P32249); experiment: RLU of GPR183 at 1.0 µM in the […] PRESTO-Tango GPCRome screen
Chain of G-protein coupled receptor 183 (Homo sapiens) (P32249 whole entry): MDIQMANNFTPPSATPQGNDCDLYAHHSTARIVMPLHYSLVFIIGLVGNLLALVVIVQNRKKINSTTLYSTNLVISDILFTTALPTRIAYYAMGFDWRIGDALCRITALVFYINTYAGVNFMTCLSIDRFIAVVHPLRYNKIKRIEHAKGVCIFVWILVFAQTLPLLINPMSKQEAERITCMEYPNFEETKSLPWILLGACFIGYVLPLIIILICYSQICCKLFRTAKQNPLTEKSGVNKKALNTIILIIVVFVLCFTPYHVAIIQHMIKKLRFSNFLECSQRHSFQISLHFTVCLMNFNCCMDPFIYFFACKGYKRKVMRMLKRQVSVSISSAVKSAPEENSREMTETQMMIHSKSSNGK

[31] = target: Neuropeptide FF receptor 1 (Homo sapiens) (UniProt Q9GZQ6); experiment: RLU of NPFF1 at 1.0 µM in the […] PRESTO-Tango GPCRome screen
[32] = target: Melanocortin receptor 5 (Homo sapiens) (UniProt P33032); experiment: RLU of MC5R at 1.0 µM in the […] PRESTO-Tango GPCRome screen
[33] = target: Glucose-dependent insulinotropic receptor (Homo sapiens) (UniProt Q8TDV5); experiment: RLU of GPR119 at 1.0 µM in the […] PRESTO-Tango GPCRome screen
Chain of Glucose-dependent insulinotropic receptor (Homo sapiens) (Q8TDV5 whole entry): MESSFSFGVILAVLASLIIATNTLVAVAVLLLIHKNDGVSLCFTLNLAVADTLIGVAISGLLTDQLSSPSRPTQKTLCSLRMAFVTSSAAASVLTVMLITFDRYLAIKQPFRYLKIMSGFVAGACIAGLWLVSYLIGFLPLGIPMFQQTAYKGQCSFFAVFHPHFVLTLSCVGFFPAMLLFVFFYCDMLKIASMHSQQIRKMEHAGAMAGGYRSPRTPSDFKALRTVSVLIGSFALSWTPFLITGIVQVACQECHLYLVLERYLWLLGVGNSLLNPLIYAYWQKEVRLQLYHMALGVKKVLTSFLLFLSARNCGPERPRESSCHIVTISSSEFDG

[34] = target: Adhesion G-protein coupled receptor G5 (Homo sapiens) (UniProt Q8IZF4); experiment: RLU of GPR114 at 1.0 µM in the […] PRESTO-Tango GPCRome screen
Chain of Adhesion G-protein coupled receptor G5 (Homo sapiens) (Q8IZF4 whole entry): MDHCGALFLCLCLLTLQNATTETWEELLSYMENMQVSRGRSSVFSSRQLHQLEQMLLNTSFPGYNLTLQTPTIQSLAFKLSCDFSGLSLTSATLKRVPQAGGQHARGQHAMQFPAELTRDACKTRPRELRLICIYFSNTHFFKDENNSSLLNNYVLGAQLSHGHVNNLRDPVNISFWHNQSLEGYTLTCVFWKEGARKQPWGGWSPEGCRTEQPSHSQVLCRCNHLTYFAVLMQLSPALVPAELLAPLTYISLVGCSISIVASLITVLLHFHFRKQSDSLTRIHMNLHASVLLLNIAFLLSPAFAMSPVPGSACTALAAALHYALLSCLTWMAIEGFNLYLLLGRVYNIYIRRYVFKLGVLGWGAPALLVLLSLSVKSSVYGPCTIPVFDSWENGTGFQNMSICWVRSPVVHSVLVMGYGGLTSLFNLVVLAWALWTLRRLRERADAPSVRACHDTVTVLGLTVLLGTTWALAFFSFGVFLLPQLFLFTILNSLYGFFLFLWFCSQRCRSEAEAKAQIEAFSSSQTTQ

[35] = target: 5-hydroxytryptamine receptor 2A (Homo sapiens) (UniProt P28223); experiment: RLU of HTR2A at 1.0 µM in the […] PRESTO-Tango GPCRome screen

CCCCC(=O)N1CC2(C1)CN(c1ccccc1-c1nnn[nH]1)C2
RLU [1]: 6950 | RLU [2]: 2600 | RLU [3]: -916 | RLU [4]: 812 | RLU [5]: 3570 | RLU [6]: 125 | RLU [7]: -1600 | RLU [8]: -900 | RLU [9]: -285 | RLU [10]: 3090 | RLU [11]: -5260 | RLU [12]: -3310 | RLU [13]: 834 | RLU [14]: 2870 | RLU [15]: 435000 | RLU [16]: 2850 | RLU [17]: -1270 | RLU [18]: -60.1 | RLU [19]: -511 | RLU [20]: 1610 | RLU [21]: 1330 | RLU [22]: 154 | RLU [23]: 4170 | RLU [24]: 3270 | RLU [25]: 11000 | RLU [26]: -2660 | RLU [27]: -1510 | RLU [28]: -1070 | RLU [29]: -2780 | RLU [30]: -6100 | RLU [31]: 4030 | RLU [32]: 481 | RLU [33]: 272 | RLU [34]: 432 | RLU [35]: -2870
